This is an account of results in US7994189B2, “Dihydropyridine derivatives” (N.V. Organon, priority 2005, dated 2011).

pEC50: −log10 of the molar value.

In this assay the target is T1, human FSH receptor (Homo sapiens, UniProt P23945).
T1 construct: expressed in transfected cells; host or cells: Chinese Hamster Ovary (CHO) cells
T1 sequence (P23945 18-695): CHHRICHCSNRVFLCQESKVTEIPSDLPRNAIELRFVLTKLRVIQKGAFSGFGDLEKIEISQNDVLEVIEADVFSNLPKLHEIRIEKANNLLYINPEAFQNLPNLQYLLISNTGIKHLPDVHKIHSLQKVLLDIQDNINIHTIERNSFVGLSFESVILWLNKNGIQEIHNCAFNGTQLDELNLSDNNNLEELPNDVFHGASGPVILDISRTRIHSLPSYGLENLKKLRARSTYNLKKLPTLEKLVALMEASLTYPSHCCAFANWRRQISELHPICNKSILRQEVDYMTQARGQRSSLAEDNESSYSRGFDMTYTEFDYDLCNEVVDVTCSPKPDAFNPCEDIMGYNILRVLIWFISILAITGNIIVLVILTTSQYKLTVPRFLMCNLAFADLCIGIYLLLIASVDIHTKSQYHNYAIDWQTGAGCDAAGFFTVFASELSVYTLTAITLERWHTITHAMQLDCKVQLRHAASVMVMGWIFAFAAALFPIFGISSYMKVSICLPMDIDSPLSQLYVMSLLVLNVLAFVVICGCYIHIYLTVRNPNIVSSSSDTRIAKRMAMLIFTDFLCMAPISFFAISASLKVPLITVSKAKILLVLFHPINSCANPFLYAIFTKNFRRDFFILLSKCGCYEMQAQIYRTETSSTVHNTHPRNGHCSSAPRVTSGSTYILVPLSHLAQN
As to the kind of experiment: CHO-FSH in vitro bioactivity (CRE/luciferase reporter gene). It is filed as cell-based. The note with it: CHO cells stably transfected with the human FSH receptor and CRE/firefly luciferase reporter; luminescence; read-out: EC50 (concentration of test compound causing half-maximal (50%) stimulation). How it is done: CHO-FSH In Vitro Bioactivity
FSH activity of compounds were tested in Chinese Hamster Ovary (CHO) cells stably transfected with the human FSH receptor and cotransfected with a cAMP responsive element (CRE)/promotor directing the expression of a firefly luciferase reporter gene. Binding of ligand to the Gs-coupled FSH receptor will result in an increase of cAMP, which in turn will induce an increased transactivation of the luciferase reporter construct. The luciferase signal was quantified using a luminescence counter. For test compounds, EC50 values (concentration of test compound causing half-maximal (50%) stimulation) were calculated. For that purpose the software program GraphPad PRISM, version 3.0 (GraphPad software Inc., San Diego) was used.
(A reporter such as luciferase makes a cellular process visible.)

As to `CCCC1CC(=O)C2=C(C1)NC(C)=C(C#N)C2c1cc(Br)c(OCc2cccc(C(=O)NCC(=O)OC)c2)c(OCC)c1` (centres unmarked) [Example 24, Glycine N-3-[2-bromo-4-(3-cyano-2-methyl-5-oxo-7-propyl-1,4,5,6,7,8-hexahydroquinolin-4-yl)-6-ethoxyphenoxymethyl]benzoyl methyl ester], the pEC50 was above 9.00. Turning to `CCCC1CC(=O)C2=C(C1)NC(C)=C(C#N)C2c1cc(Br)c(OCc2ccc(C(=O)NCc3cccs3)cc2)c(OCC)c1` (centres unmarked) [Example 29, 4-[2-Bromo-4-(3-cyano-2-methyl-5-oxo-7-propyl-1,4,5,6,7,8-hexahydroquinolin-4-yl)-6-ethoxyphenoxymethyl]-N-thiophen-2-ylmethylbenzamide], the pEC50 is above 9.00.
